From PubChem BioAssay AID330 (DTP/NCI, 2004)
“And” between values parts separate entries of the source, which are not always exact repeats. Equal values may be shown once. Inconclusive results and toxic doses are left out. Rule for the calls: active = survival T/C of 150% or more; inactive = T/C below 125% in these data.

System: P388 leukemia ip, CD2F1 mice, survival T/C
Test: NCI In Vivo Anticancer Drug Screen. Data for tumor model P388 Leukemia (intraperitoneal) in CD2F1 (CDF1) mice
Settings: endpoint: median survival time, higher = longer survival
Summary of the method: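 Mice carrying the transplanted tumor received test compound or vehicle. Survival was recorded in each group, and the value is the treated-group measurement divided by that of the vehicle-treated control group.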

[1] = dose: 12.5 mg/kg/injection, schedule: Q01DX009 (ip), vehicle: saline
[2] = dose: 50.0 mg/kg/injection, schedule: Q01DX009 (ip), vehicle: saline
[3] = dose: 50.0 mg/kg/injection, schedule: Q01DX005 (ip), vehicle: Klucel (hydroxypropylcellulose) (HPC)
[4] = dose: 100.0 mg/kg/injection, schedule: Q01DX005 (ip), vehicle: Klucel (hydroxypropylcellulose) (HPC)
[5] = dose: 200.0 mg/kg/injection, schedule: Q01DX005 (ip), vehicle: Klucel (hydroxypropylcellulose) (HPC)

Measured: T/C

N/N=C1/C(=O)N(c2ccc(S(N)(=O)=O)cc2)C(=O)C1C(=O)Nc1ccc(S(N)(=O)=O)cc1 (stereo not drawn)
inactive: dose: 60.0 mg/kg/injection, schedule: Q01DX005 (ip), vehicle: saline with Tween-80 114 % of control | dose: 120.0 mg/kg/injection, schedule: Q01DX005 (ip), vehicle: saline with Tween-80 101 % of control | dose: 240.0 mg/kg/injection, schedule: Q01DX005 (ip), vehicle: saline with Tween-80 106 % of control

CCCCCC(CN(C)C)C(O)/C=C/c1ccc(Cl)cc1Cl (stereo not drawn)
inactive: [1] 108 % of control | dose: 25.0 mg/kg/injection, schedule: Q01DX009 (ip), vehicle: saline 100 % of control | [2] 99 % of control

CN(C)c1ccc2c(=O)cc[nH]c2c1
inactive: dose: 50.0 mg/kg/injection, schedule: Q01DX005 (ip), vehicle: saline 96 % of control | dose: 100.0 mg/kg/injection, schedule: Q01DX005 (ip), vehicle: saline 100 % of control | dose: 200.0 mg/kg/injection, schedule: Q01DX005 (ip), vehicle: saline 100 % of control

CC(=O)c1ccc2c(c1)N(CCCN(C)C)c1ccccc1S2
inactive: dose: 3.12 mg/kg/injection, schedule: Q01DX009 (ip), vehicle: saline 94 % of control and 97 % of control | dose: 6.25 mg/kg/injection, schedule: Q01DX009 (ip), vehicle: saline 93 % of control and 94 % of control | [1] 103 % of control and 93 % of control | [2] 101 % of control | dose: 100.0 mg/kg/injection, schedule: Q01DX009 (ip), vehicle: saline 116 % of control

CC(=O)Nc1ccc2c(=O)n(O)c(=O)[nH]c2c1
inactive: [3] 102 % of control | [4] 103 % of control | [5] 106 % of control

N#CC1=CN=C2C=CC=C3N=C(C(Cl)(Cl)Cl)N=C1N32
inactive: dose: 15.0 mg/kg/injection, schedule: Q01DX005 (ip), vehicle: Klucel + Tween-80 92 % of control | dose: 30.0 mg/kg/injection, schedule: Q01DX005 (ip), vehicle: Klucel + Tween-80 87 % of control | dose: 60.0 mg/kg/injection, schedule: Q01DX005 (ip), vehicle: Klucel + Tween-80 93 % of control

O=C1C=C(O)CC(c2ccccc2)N1 (stereo not drawn)
inactive: [3] 102 % of control | [4] 104 % of control | [5] 108 % of control
